Experimental data published in ChEMBL document CHEMBL1201862, “PubChem BioAssay data set” (2004).
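Cultured in 96-well plates, cells were exposed to test compound for 48 hours across five concentrations. GI50: concentration for 50% inhibition of growth.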 Calls of active or inactive are those of the source. Cut-off read from the data, not from the text of the source: active = GI50 up to about 1.1 µM and inactive = higher.

Legend:
Test in all cases: NCI anticancer screen, dose series, 48 h
BT-549 = test system: BT-549
CAKI-1 = test system: CAKI-1
CCRF-CEM = test system: CCRF-CEM
COLO 205 = test system: COLO 205
KM12 = test system: KM12
M14 = test system: M14
MOLT-4 = test system: MOLT-4
NCI-H23 = test system: NCI-H23
NCI-H522 = test system: NCI-H522
NCI/ADR-RES = test system: NCI/ADR-RES
OVCAR-3 = test system: OVCAR-3
OVCAR-5 = test system: OVCAR-5
SK-MEL-5 = test system: SK-MEL-5
SN12C = test system: SN12C
SNB-75 = test system: SNB-75
SW-620 = test system: SW-620
UACC-257 = test system: UACC-257
UO-31 = test system: UO-31

Compound	GI50 (BT-549)	GI50 (CAKI-1)	GI50 (CCRF-CEM)	GI50 (COLO 205)	GI50 (KM12)	GI50 (M14)	GI50 (MOLT-4)	GI50 (NCI-H23)	GI50 (NCI-H522)	GI50 (NCI/ADR-RES)	GI50 (OVCAR-3)	GI50 (OVCAR-5)	GI50 (SK-MEL-5)	GI50 (SN12C)	GI50 (SNB-75)	GI50 (SW-620)	GI50 (UACC-257)	GI50 (UO-31)
NCCCCNCCCN1CCOC1=O	> 100 µM (inactive)	> 100 µM (inactive)	> 100 µM (inactive)	> 100 µM (inactive)	> 100 µM (inactive)	> 100 µM (inactive)	> 100 µM (inactive)	> 100 µM (inactive)	> 100 µM (inactive)	> 100 µM (inactive)	> 100 µM (inactive)	> 100 µM (inactive)	> 100 µM (inactive)	> 100 µM (inactive)	> 100 µM (inactive)	> 100 µM (inactive)	> 100 µM (inactive)	> 100 µM (inactive)
COc1cc(OC)cc(N(C)Cc2cnc3nc(N)nc(N)c3c2C)c1	> 25.7 µM (inactive)	2.04 µM (inactive)	2.47 µM (inactive)	12.6 µM (inactive)	3.85 µM (inactive)	0.652 µM (active)	0.741 µM (active)	1.25 µM (inactive)	2.21 µM (inactive)	5.65 µM (inactive)	9.66 µM (inactive)	0.757 µM (active)	0.615 µM (active)	0.929 µM (active)	0.0571 µM (active)	0.585 µM (active)	1.56 µM (inactive)	5.52 µM (inactive)
COc1cc2c3c(n(C)c(=O)c2cc1OC)-c1cc2c(cc1/C3=C\CCCCCBr)OCO2	93.1 µM (inactive)	3.81 µM (inactive)	2.38 µM (inactive)	47.3 µM (inactive)	31.9 µM (inactive)		1.45 µM (inactive)	10.6 µM (inactive)	3.73 µM (inactive)	32.4 µM (inactive)		67.9 µM (inactive)	4.07 µM (inactive)	5.96 µM (inactive)	12.1 µM (inactive)	8.32 µM (inactive)	25.1 µM (inactive)	4.66 µM (inactive)
COc1c(OC)c(OC)c(C(=O)/C=C/c2ccccc2)c(OC)c1OC	3.79 µM (inactive)	13.9 µM (inactive)	1.96 µM (inactive)	14.2 µM (inactive)	4.1 µM (inactive)	12 µM (inactive)	8.83 µM (inactive)	11 µM (inactive)	3.12 µM (inactive)	11.5 µM (inactive)	9.29 µM (inactive)	16.5 µM (inactive)	13.5 µM (inactive)	10.6 µM (inactive)	8.91 µM (inactive)	6.95 µM (inactive)	14.3 µM (inactive)	10.5 µM (inactive)
COc1cc(C(=O)O[C@@H]2[C@@H](OC(=O)c3cc(OC)c(OC)c(OC)c3)[C@@H](OC)O[C@@H]3CO[C@@H](c4ccccc4)O[C@@H]23)cc(OC)c1OC	50.4 µM (inactive)	> 100 µM (inactive)	> 100 µM (inactive)	> 100 µM (inactive)	> 100 µM (inactive)	> 100 µM (inactive)	> 100 µM (inactive)	> 100 µM (inactive)	> 100 µM (inactive)	> 100 µM (inactive)	> 100 µM (inactive)	> 100 µM (inactive)	> 100 µM (inactive)	> 100 µM (inactive)	29.6 µM (inactive)	> 100 µM (inactive)	> 100 µM (inactive)	> 100 µM (inactive)
N#Cc1c2c(c(N3CCOCC3)n3c1nc1ccccc13)CCCC2	40.1 µM (inactive)	19.1 µM (inactive)	2.75 µM (inactive)	20.9 µM (inactive)	> 100 µM (inactive)	21.5 µM (inactive)	8.81 µM (inactive)	19.5 µM (inactive)	16.3 µM (inactive)	17.9 µM (inactive)	18.8 µM (inactive)	21.1 µM (inactive)	18.7 µM (inactive)	19.9 µM (inactive)		14.4 µM (inactive)	29.2 µM (inactive)	18.4 µM (inactive)
